Test results from PubChem BioAssay (NCI).
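A five-concentration, 48-hour dose response in 96-well plates underlies each endpoint, interpolated linearly between surrounding concentrations. TGI denotes the concentration required for complete inhibition of growth.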

Key:
Assay in all cases: growth of human tumour cells (NCI), 48 h
786-0 renal = tested on: 786-0 renal
A498 renal = tested on: A498 renal
A549 NSCLC = tested on: A549 NSCLC
ACHN renal = tested on: ACHN renal
BT-549 breast = tested on: BT-549 breast
CAKI-1 renal = tested on: CAKI-1 renal
CCRF-CEM leukemia = tested on: CCRF-CEM leukemia
COLO 205 colon = tested on: COLO 205 colon
DU-145 prostate = tested on: DU-145 prostate
EKVX NSCLC = tested on: EKVX NSCLC
HCC-2998 colon = tested on: HCC-2998 colon
HCT-116 colon = tested on: HCT-116 colon
HCT-15 colon = tested on: HCT-15 colon
HL-60(TB) leukemia = tested on: HL-60(TB) leukemia
HOP-62 NSCLC = tested on: HOP-62 NSCLC
HOP-92 NSCLC = tested on: HOP-92 NSCLC
HS 578T breast = tested on: HS 578T breast
HT29 colon = tested on: HT29 colon
IGROV1 ovarian = tested on: IGROV1 ovarian
KM12 colon = tested on: KM12 colon
LOX IMVI melanoma = tested on: LOX IMVI melanoma
M14 melanoma = tested on: M14 melanoma
MCF7 breast = tested on: MCF7 breast
MDA-MB-231 breast = tested on: MDA-MB-231 breast
MDA-MB-435 = tested on: MDA-MB-435
MDA-N = tested on: MDA-N
NCI-H226 lung = tested on: NCI-H226 lung
NCI-H23 lung = tested on: NCI-H23 lung
NCI/ADR-RES ovarian = tested on: NCI/ADR-RES ovarian
OVCAR-3 ovarian = tested on: OVCAR-3 ovarian
OVCAR-4 ovarian = tested on: OVCAR-4 ovarian
OVCAR-5 ovarian = tested on: OVCAR-5 ovarian
OVCAR-8 ovarian = tested on: OVCAR-8 ovarian
PC-3 prostate = tested on: PC-3 prostate
RPMI-8226 leukemia = tested on: RPMI-8226 leukemia
SF-268 CNS = tested on: SF-268 CNS
SF-295 CNS = tested on: SF-295 CNS
SF-539 CNS = tested on: SF-539 CNS
SK-MEL-2 melanoma = tested on: SK-MEL-2 melanoma
SK-MEL-28 melanoma = tested on: SK-MEL-28 melanoma
SK-MEL-5 melanoma = tested on: SK-MEL-5 melanoma
SK-OV-3 ovarian = tested on: SK-OV-3 ovarian
SN12C renal = tested on: SN12C renal
SNB-19 CNS = tested on: SNB-19 CNS
SW-620 colon = tested on: SW-620 colon
T-47D breast = tested on: T-47D breast
TK-10 renal = tested on: TK-10 renal
U251 CNS = tested on: U251 CNS
UACC-257 melanoma = tested on: UACC-257 melanoma
UACC-62 melanoma = tested on: UACC-62 melanoma
UO-31 renal = tested on: UO-31 renal
K-562 leukemia = tested on: K-562 leukemia
MALME-3M melanoma = tested on: MALME-3M melanoma
MOLT-4 leukemia = tested on: MOLT-4 leukemia
NCI-H460 lung = tested on: NCI-H460 lung
NCI-H522 lung = tested on: NCI-H522 lung
RXF 393 renal = tested on: RXF 393 renal
SNB-75 CNS = tested on: SNB-75 CNS

CNc1ncnc2c1cnn2Cc1cn(COCC(O)CO)nn1 (stereo not drawn) was tested. Which TGI (786-0 renal) did it give?
The TGI was over 100 µM.

And the TGI (A498 renal)?
The TGI was over 100 µM.

And the TGI (A549 NSCLC)?
The TGI was over 100 µM.

And the TGI (ACHN renal)?
The TGI was over 100 µM.

And the TGI (BT-549 breast)?
Its TGI is over 100 µM.

And the TGI (CAKI-1 renal)?
The TGI was over 100 µM.

And the TGI (CCRF-CEM leukemia)?
Its TGI is over 100 µM.

What about the TGI (COLO 205 colon) of the same compound?
Its TGI is over 100 µM.

And the TGI (DU-145 prostate)?
The TGI was over 100 µM.

What about the TGI (EKVX NSCLC) of the same compound?
The TGI was over 100 µM.

What about the TGI (HCC-2998 colon) of the same compound?
The TGI was over 100 µM.

What about the TGI (HCT-116 colon) of the same compound?
Its TGI is over 100 µM.

What about the TGI (HCT-15 colon) of the same compound?
Its TGI is over 100 µM.

What about the TGI (HL-60(TB) leukemia) of the same compound?
Its TGI is over 100 µM.

And the TGI (HOP-62 NSCLC)?
The TGI was over 100 µM.

What about the TGI (HOP-92 NSCLC) of the same compound?
Its TGI is over 100 µM.

What about the TGI (HS 578T breast) of the same compound?
Its TGI is 20.3 µM.

And the TGI (HT29 colon)?
Its TGI is over 100 µM.

And the TGI (IGROV1 ovarian)?
Its TGI is over 100 µM.

And the TGI (KM12 colon)?
The TGI was over 100 µM.

What about the TGI (LOX IMVI melanoma) of the same compound?
Its TGI is over 100 µM.

And the TGI (M14 melanoma)?
The TGI was over 100 µM.

And the TGI (MCF7 breast)?
Its TGI is over 100 µM.

And the TGI (MDA-MB-231 breast)?
The TGI was over 100 µM.

What about the TGI (MDA-MB-435) of the same compound?
The TGI was over 100 µM.

What about the TGI (MDA-N) of the same compound?
The TGI was over 100 µM.

And the TGI (NCI-H226 lung)?
The TGI was over 100 µM.

What about the TGI (NCI-H23 lung) of the same compound?
The TGI was over 100 µM.

And the TGI (NCI/ADR-RES ovarian)?
Its TGI is over 100 µM.

And the TGI (OVCAR-3 ovarian)?
Its TGI is over 100 µM.

What about the TGI (OVCAR-4 ovarian) of the same compound?
The TGI was over 100 µM.

What about the TGI (OVCAR-5 ovarian) of the same compound?
The TGI was over 100 µM.

What about the TGI (OVCAR-8 ovarian) of the same compound?
Its TGI is over 100 µM.

What about the TGI (PC-3 prostate) of the same compound?
Its TGI is over 100 µM.

And the TGI (RPMI-8226 leukemia)?
Its TGI is over 100 µM.

And the TGI (SF-268 CNS)?
Its TGI is 22 µM.

What about the TGI (SF-295 CNS) of the same compound?
The TGI was over 100 µM.

What about the TGI (SF-539 CNS) of the same compound?
The TGI was over 100 µM.

And the TGI (SK-MEL-2 melanoma)?
The TGI was over 100 µM.

What about the TGI (SK-MEL-28 melanoma) of the same compound?
The TGI was over 100 µM.

And the TGI (SK-MEL-5 melanoma)?
Its TGI is over 100 µM.

What about the TGI (SK-OV-3 ovarian) of the same compound?
Its TGI is over 100 µM.

What about the TGI (SN12C renal) of the same compound?
Its TGI is over 100 µM.

What about the TGI (SNB-19 CNS) of the same compound?
The TGI was over 100 µM.

And the TGI (SW-620 colon)?
Its TGI is over 100 µM.

And the TGI (T-47D breast)?
The TGI was over 100 µM.

And the TGI (TK-10 renal)?
The TGI was over 100 µM.

What about the TGI (U251 CNS) of the same compound?
The TGI was over 100 µM.

And the TGI (UACC-257 melanoma)?
The TGI was over 100 µM.

What about the TGI (UACC-62 melanoma) of the same compound?
Its TGI is over 100 µM.

What about the TGI (UO-31 renal) of the same compound?
The TGI was over 100 µM.

O=C(O)C(=O)/C=C(\O)c1ccc(Br)cc1 was tested. Which TGI (786-0 renal) did it give?
The TGI was over 100 µM.

What about the TGI (A498 renal) of the same compound?
Its TGI is over 100 µM.

What about the TGI (A549 NSCLC) of the same compound?
The TGI was over 100 µM.

And the TGI (ACHN renal)?
The TGI was over 100 µM.

And the TGI (BT-549 breast)?
The TGI was over 100 µM.

And the TGI (CAKI-1 renal)?
The TGI was over 100 µM.

What about the TGI (CCRF-CEM leukemia) of the same compound?
Its TGI is over 100 µM.

And the TGI (COLO 205 colon)?
Its TGI is over 100 µM.

What about the TGI (DU-145 prostate) of the same compound?
The TGI was over 100 µM.

What about the TGI (EKVX NSCLC) of the same compound?
The TGI was 82.1 µM.

What about the TGI (HCC-2998 colon) of the same compound?
The TGI was over 100 µM.

And the TGI (HCT-116 colon)?
Its TGI is over 100 µM.

And the TGI (HCT-15 colon)?
The TGI was over 100 µM.

And the TGI (HL-60(TB) leukemia)?
Its TGI is over 100 µM.

And the TGI (HOP-62 NSCLC)?
Its TGI is over 100 µM.

And the TGI (HOP-92 NSCLC)?
Its TGI is over 100 µM.

And the TGI (HS 578T breast)?
The TGI was over 100 µM.

What about the TGI (HT29 colon) of the same compound?
Its TGI is over 100 µM.

What about the TGI (IGROV1 ovarian) of the same compound?
Its TGI is over 100 µM.

What about the TGI (K-562 leukemia) of the same compound?
Its TGI is over 100 µM.

What about the TGI (KM12 colon) of the same compound?
The TGI was over 100 µM.

And the TGI (LOX IMVI melanoma)?
The TGI was over 100 µM.

And the TGI (M14 melanoma)?
The TGI was over 100 µM.

What about the TGI (MALME-3M melanoma) of the same compound?
The TGI was over 100 µM.

What about the TGI (MCF7 breast) of the same compound?
Its TGI is over 100 µM.

And the TGI (MDA-MB-231 breast)?
Its TGI is over 100 µM.

And the TGI (MDA-MB-435)?
Its TGI is over 100 µM.

What about the TGI (MDA-N) of the same compound?
The TGI was over 100 µM.

And the TGI (MOLT-4 leukemia)?
The TGI was over 100 µM.

What about the TGI (NCI-H226 lung) of the same compound?
The TGI was over 100 µM.

And the TGI (NCI-H23 lung)?
Its TGI is over 100 µM.

What about the TGI (NCI-H460 lung) of the same compound?
The TGI was over 100 µM.

What about the TGI (NCI-H522 lung) of the same compound?
Its TGI is over 100 µM.

And the TGI (NCI/ADR-RES ovarian)?
Its TGI is over 100 µM.

What about the TGI (OVCAR-3 ovarian) of the same compound?
The TGI was over 100 µM.

What about the TGI (OVCAR-4 ovarian) of the same compound?
Its TGI is over 100 µM.

What about the TGI (OVCAR-5 ovarian) of the same compound?
The TGI was over 100 µM.

And the TGI (OVCAR-8 ovarian)?
The TGI was over 100 µM.

And the TGI (PC-3 prostate)?
Its TGI is over 100 µM.

And the TGI (RPMI-8226 leukemia)?
The TGI was over 100 µM.

What about the TGI (RXF 393 renal) of the same compound?
Its TGI is over 100 µM.

What about the TGI (SF-268 CNS) of the same compound?
The TGI was over 100 µM.

What about the TGI (SF-295 CNS) of the same compound?
The TGI was over 100 µM.

What about the TGI (SK-MEL-2 melanoma) of the same compound?
Its TGI is over 100 µM.

What about the TGI (SK-MEL-28 melanoma) of the same compound?
The TGI was over 100 µM.

And the TGI (SK-MEL-5 melanoma)?
Its TGI is over 100 µM.

And the TGI (SK-OV-3 ovarian)?
The TGI was over 100 µM.

And the TGI (SN12C renal)?
Its TGI is over 100 µM.

What about the TGI (SNB-19 CNS) of the same compound?
Its TGI is over 100 µM.

What about the TGI (SNB-75 CNS) of the same compound?
The TGI was over 100 µM.

What about the TGI (SW-620 colon) of the same compound?
Its TGI is over 100 µM.

What about the TGI (T-47D breast) of the same compound?
Its TGI is over 100 µM.

What about the TGI (TK-10 renal) of the same compound?
Its TGI is over 100 µM.

What about the TGI (U251 CNS) of the same compound?
The TGI was over 100 µM.

What about the TGI (UACC-257 melanoma) of the same compound?
Its TGI is over 100 µM.

And the TGI (UACC-62 melanoma)?
Its TGI is over 100 µM.

And the TGI (UO-31 renal)?
The TGI was over 100 µM.
